{"source": "paper PMC10004634", "about": "(PLOS ONE, 2023)", "test_in_all_cases": "biochemical", "parameters_in_all_cases": "KINOMEscan scanMAX competition binding, DNA-tagged kinases, qPCR read-out, percent control at 300 nM", "key": {"[1]": {"biological_target": "T1, BRSK1 (Homo sapiens, UniProt Q8TDC3)", "T1 sequence (Q8TDC3 1-778)": "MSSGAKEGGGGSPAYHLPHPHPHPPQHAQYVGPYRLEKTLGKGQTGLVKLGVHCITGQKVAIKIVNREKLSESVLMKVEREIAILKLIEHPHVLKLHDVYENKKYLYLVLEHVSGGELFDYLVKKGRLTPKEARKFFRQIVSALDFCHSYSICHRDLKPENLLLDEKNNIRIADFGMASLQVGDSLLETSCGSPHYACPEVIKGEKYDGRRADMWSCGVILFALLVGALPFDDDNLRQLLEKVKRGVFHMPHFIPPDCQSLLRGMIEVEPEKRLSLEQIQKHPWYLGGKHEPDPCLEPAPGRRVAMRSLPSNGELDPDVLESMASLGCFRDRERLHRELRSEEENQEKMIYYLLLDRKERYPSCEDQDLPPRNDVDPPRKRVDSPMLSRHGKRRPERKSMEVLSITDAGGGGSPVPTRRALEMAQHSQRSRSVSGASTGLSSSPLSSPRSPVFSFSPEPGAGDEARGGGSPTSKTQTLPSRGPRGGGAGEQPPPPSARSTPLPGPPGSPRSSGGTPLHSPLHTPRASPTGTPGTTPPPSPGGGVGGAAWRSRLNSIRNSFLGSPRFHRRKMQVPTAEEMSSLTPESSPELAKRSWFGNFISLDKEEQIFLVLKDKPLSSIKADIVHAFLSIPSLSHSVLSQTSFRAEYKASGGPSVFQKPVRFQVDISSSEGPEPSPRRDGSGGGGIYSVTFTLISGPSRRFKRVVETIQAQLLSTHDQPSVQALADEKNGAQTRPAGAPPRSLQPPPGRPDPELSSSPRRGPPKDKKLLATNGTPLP"}, "[2]": {"biological_target": "EGFR(L747-E749del, A750P) (Homo sapiens, UniProt P00533, A750P/DEL747-749)", "sequence (P00533 with tags, fused parts or gaps DEL747-749/A750P)": "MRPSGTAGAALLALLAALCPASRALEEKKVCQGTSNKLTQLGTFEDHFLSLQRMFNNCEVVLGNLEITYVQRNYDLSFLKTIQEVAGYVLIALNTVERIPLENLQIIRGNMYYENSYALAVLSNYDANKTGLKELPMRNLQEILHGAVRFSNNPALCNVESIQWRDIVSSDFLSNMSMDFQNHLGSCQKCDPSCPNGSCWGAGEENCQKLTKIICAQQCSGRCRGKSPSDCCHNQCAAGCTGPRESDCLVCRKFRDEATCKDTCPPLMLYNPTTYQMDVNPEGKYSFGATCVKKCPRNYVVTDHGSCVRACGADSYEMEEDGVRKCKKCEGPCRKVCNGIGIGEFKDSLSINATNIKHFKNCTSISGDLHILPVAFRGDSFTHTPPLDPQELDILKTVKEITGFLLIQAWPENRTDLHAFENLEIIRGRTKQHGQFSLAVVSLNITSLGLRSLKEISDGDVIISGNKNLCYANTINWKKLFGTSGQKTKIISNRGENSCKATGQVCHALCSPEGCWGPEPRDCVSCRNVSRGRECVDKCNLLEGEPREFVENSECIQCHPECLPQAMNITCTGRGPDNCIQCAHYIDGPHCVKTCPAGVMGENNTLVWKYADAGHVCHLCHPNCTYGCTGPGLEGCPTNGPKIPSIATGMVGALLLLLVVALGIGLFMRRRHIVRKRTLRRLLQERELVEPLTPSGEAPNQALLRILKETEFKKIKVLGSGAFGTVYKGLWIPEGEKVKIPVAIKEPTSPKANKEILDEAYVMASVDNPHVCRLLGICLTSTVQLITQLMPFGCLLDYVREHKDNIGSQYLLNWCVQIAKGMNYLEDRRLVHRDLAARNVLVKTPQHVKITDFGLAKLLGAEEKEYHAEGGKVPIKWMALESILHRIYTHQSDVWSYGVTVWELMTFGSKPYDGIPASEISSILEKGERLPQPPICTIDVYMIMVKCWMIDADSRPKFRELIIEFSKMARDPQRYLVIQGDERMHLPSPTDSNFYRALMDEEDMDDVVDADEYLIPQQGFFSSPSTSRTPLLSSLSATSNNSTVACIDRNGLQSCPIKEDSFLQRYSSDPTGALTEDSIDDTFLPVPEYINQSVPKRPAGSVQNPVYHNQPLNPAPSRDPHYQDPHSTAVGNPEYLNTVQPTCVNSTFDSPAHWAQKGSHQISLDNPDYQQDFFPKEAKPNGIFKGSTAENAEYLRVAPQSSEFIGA"}, "[3]": {"biological_target": "AKT3 (Homo sapiens, UniProt Q9Y243)", "sequence (Q9Y243 whole entry)": "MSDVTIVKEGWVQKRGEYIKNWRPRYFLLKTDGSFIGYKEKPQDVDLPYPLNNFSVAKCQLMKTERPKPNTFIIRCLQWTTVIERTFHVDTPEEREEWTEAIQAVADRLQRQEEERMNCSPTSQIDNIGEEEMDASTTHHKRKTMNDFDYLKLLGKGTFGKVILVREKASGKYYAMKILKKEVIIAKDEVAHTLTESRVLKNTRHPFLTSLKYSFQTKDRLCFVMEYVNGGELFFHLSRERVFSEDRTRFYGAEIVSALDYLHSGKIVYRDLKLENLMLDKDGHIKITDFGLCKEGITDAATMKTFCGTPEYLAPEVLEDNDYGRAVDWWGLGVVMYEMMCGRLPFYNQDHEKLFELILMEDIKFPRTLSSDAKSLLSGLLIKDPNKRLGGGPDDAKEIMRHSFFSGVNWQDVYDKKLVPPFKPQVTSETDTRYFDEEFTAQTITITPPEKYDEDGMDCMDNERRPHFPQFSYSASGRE"}, "[4]": {"biological_target": "T2, JAK1(JH1domain-catalytic) (Homo sapiens, UniProt P23458)", "T2 construct": "JH1domain-catalytic", "T2 sequence (P23458 whole entry)": "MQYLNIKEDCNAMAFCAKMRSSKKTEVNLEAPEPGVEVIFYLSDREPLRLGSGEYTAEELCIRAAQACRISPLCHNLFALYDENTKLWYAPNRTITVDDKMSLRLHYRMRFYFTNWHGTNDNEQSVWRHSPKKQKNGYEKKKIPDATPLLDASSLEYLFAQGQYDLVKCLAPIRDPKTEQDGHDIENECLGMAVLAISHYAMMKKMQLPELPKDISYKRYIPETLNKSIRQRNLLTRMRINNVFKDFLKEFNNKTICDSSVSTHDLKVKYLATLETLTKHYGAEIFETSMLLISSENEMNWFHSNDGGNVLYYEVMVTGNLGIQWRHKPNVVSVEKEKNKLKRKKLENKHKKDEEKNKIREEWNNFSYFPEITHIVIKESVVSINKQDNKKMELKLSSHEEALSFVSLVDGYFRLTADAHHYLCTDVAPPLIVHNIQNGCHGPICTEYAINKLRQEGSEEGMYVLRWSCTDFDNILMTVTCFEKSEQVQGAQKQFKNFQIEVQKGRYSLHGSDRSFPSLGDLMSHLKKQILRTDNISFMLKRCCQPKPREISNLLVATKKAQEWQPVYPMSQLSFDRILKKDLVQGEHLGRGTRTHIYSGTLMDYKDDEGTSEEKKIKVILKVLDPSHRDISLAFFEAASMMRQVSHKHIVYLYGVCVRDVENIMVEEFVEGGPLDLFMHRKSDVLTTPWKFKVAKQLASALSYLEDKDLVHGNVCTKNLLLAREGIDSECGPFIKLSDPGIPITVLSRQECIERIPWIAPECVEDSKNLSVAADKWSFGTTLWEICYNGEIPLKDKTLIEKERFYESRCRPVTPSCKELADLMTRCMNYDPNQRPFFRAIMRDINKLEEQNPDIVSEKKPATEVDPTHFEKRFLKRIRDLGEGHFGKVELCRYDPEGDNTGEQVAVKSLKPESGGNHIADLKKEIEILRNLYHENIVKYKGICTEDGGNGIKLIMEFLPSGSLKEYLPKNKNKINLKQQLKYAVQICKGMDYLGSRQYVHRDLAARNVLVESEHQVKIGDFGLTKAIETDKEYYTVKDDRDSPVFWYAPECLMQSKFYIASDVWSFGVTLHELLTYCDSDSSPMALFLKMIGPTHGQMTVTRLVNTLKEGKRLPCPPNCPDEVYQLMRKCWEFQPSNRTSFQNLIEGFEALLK"}, "[5]": {"biological_target": "T3, MEK1 (Homo sapiens, UniProt Q02750)", "T3 construct": "gene MAP2K1", "T3 sequence (Q02750 whole entry)": "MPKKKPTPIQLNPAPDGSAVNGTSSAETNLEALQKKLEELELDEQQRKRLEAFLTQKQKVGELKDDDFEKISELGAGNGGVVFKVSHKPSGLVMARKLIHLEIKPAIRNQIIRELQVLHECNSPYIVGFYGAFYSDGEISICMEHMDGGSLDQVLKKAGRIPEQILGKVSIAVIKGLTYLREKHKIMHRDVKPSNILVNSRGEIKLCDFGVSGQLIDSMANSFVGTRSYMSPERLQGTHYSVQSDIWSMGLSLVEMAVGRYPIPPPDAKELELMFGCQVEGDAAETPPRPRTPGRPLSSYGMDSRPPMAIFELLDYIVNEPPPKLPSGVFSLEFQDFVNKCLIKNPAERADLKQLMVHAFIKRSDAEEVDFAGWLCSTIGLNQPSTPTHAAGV"}, "[6]": {"biological_target": "T4, EPHB2 (Homo sapiens, UniProt P29323)", "T4 sequence (P29323 1-1055)": "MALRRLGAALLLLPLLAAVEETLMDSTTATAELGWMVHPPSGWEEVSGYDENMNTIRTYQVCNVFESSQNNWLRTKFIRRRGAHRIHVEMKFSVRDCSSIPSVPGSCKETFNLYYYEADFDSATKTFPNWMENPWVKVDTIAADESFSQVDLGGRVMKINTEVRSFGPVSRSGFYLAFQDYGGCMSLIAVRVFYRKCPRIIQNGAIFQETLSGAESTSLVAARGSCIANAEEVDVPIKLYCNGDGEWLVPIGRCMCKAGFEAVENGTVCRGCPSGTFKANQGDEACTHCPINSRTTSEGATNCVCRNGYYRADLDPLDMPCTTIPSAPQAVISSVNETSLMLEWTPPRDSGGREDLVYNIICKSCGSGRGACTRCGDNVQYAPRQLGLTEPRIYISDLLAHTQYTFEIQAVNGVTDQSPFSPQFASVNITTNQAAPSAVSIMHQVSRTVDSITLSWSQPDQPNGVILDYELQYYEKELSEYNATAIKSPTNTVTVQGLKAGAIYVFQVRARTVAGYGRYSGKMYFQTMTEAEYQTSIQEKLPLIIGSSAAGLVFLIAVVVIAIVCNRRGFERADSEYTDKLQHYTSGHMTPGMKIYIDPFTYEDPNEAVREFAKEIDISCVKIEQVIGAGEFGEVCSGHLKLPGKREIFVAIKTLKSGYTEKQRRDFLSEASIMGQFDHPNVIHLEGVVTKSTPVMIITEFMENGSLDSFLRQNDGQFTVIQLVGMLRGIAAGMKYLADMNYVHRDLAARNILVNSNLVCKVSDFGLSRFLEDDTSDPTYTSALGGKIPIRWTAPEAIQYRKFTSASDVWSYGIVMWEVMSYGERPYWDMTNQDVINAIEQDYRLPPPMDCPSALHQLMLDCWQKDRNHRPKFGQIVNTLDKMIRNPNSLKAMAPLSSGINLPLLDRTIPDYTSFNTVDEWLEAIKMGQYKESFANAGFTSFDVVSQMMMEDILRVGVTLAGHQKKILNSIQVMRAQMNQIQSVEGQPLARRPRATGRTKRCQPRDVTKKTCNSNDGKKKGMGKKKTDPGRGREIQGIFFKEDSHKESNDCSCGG"}, "[7]": {"biological_target": "T5, MEK5 (Homo sapiens, UniProt Q13163)", "T5 construct": "gene MAP2K5", "T5 sequence (Q13163 1-448)": "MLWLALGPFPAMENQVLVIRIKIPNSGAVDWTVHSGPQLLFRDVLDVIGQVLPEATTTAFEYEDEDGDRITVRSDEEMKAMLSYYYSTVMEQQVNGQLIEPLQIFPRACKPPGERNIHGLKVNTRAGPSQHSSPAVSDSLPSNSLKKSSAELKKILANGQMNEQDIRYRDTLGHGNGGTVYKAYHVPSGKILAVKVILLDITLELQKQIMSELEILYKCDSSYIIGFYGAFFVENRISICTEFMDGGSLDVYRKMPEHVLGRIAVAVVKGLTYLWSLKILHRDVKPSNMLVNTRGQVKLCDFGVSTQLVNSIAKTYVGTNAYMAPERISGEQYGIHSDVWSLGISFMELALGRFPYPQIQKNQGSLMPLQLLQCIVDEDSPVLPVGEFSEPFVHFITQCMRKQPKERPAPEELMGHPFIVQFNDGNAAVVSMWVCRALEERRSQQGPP"}, "[8]": {"conditions": "read-out: Percent control / Acalabrutinib"}, "[9]": {"conditions": "read-out: Percent control / Ibrutinib"}, "[10]": {"conditions": "read-out: Percent control / Tirabrutinib"}, "[11]": {"conditions": "read-out: Percent control / Zanubrutinib"}}, "note": "Read-outs that look alike come from different tables or passages of the source."}
{"smiles": "CC#CC(=O)N1CCC[C@H]1c1nc(-c2ccc(C(=O)Nc3ccccn3)cc2)c2c(N)nccn12", "note": "[Acalabrutinib]", "values": [{"measurement": "remaining binding at 0.3 µM", "setting": "[1]; [8]", "result": 92, "unit": "%"}, {"measurement": "remaining binding at 0.3 µM", "setting": "[2]; [8]", "result": 91, "unit": "%"}, {"measurement": "remaining binding at 0.3 µM", "setting": "[3]; [8]", "result": 95, "unit": "%"}, {"measurement": "remaining binding at 0.3 µM", "setting": "[4]; [8]", "result": 64, "unit": "%"}, {"measurement": "remaining binding at 0.3 µM", "setting": "[5]; [8]", "result": 96, "unit": "%"}, {"measurement": "remaining binding at 0.3 µM", "setting": "[6]; [8]", "result": 89, "unit": "%"}, {"measurement": "remaining binding at 0.3 µM", "setting": "[7]; [8]", "result": 71, "unit": "%"}]}
{"smiles": "C=CC(=O)N1CCC[C@@H](n2nc(-c3ccc(Oc4ccccc4)cc3)c3c(N)ncnc32)C1", "note": "[Ibrutinib]", "values": [{"measurement": "remaining binding at 0.3 µM", "setting": "[1]; [9]", "result": 72, "unit": "%"}, {"measurement": "remaining binding at 0.3 µM", "setting": "[2]; [9]", "result": 10, "unit": "%"}, {"measurement": "remaining binding at 0.3 µM", "setting": "[5]; [9]", "result": 91, "unit": "%"}, {"measurement": "remaining binding at 0.3 µM", "setting": "[7]; [9]", "result": 0.6, "unit": "%"}]}
{"smiles": "CC#CC(=O)N1CC[C@@H](n2c(=O)n(-c3ccc(Oc4ccccc4)cc3)c3c(N)ncnc32)C1", "note": "[Tirabrutinib]", "values": [{"measurement": "remaining binding at 0.3 µM", "setting": "[2]; [10]", "result": 69, "unit": "%"}, {"measurement": "remaining binding at 0.3 µM", "setting": "[3]; [10]", "result": 83, "unit": "%"}, {"measurement": "remaining binding at 0.3 µM", "setting": "[4]; [10]", "result": 88, "unit": "%"}, {"measurement": "remaining binding at 0.3 µM", "setting": "[6]; [10]", "result": 87, "unit": "%"}, {"measurement": "remaining binding at 0.3 µM", "setting": "[7]; [10]", "result": 41, "unit": "%"}]}
{"smiles": "C=CC(=O)N1CCC([C@@H]2CCNc3c(C(N)=O)c(-c4ccc(Oc5ccccc5)cc4)nn32)CC1", "note": "[Zanubrutinib]", "values": [{"measurement": "remaining binding at 0.3 µM", "setting": "[1]; [11]", "result": 92, "unit": "%"}, {"measurement": "remaining binding at 0.3 µM", "setting": "[3]; [11]", "result": 84, "unit": "%"}, {"measurement": "remaining binding at 0.3 µM", "setting": "[4]; [11]", "result": 87, "unit": "%"}, {"measurement": "remaining binding at 0.3 µM", "setting": "[5]; [11]", "result": 4.1, "unit": "%"}, {"measurement": "remaining binding at 0.3 µM", "setting": "[6]; [11]", "result": 100, "unit": "%"}]}
